Read-outs that look alike come from different tables or passages of the source.
Assays:
adenosine receptor = assay: Adenosine binding assay, [3H]-NECA, bovine striatal membrane
Procedure: The ability of 1-(3,4-dimethoxyphenyl)-4-methyl-5-ethyl-7-methoxy-8-hydroxy-5H-2,3-benzodiazepine to inhibit the binding of [^3H]5′-N-ethylcarboxamidoadenosine (NECA) (15-30 Ci/mmol) was determined via the bovine striatal membrane assay of Bruns et al., “Characterization of the A2 Adenosine Receptor Labeled by [^3H]-NECA in Rat Striatal Membrane”, Pharmacology, 29: 331-346 (1986), with modifications. See also, Weir et al. “Inhibition of N6-[^3H]CHA Binding by Carbamazepine” Epilepsia, 31(5), 503-512 (1990) with modifications; and Holtzman et al., “Role of Adenosine Receptors in Caffeine Tolerance,” J. Pharmacol. & Exp. Ther., 256(1), 62-67 (1990).
(§1) Reactions were carried out in 50 mM TRIS-HCl (pH 7.7) at 25° C. for 60 minutes. The reaction was terminated by rapid vacuum filtration onto glass fiber filters. Radioactivity trapped onto the filters was determined and compared to control values in order to ascertain any interactions of test compound with the adenosine binding site.

Male Swiss mice = assay: Mouse maximal electroshock test; type: in vivo; conditions: for Duration of tonic seizure Mean ± SEM: i.p., about 30 min before electroshock, mice; for anticonvulsant activity: vs. vehicle
Procedure: In this model of tonic-clonic seizure activity, seizures were produced by application of an AC current via corneal electrodes. The maximal electroshock model is commonly employed to assay anticonvulsant activity. See, Swinyard et al., J. Pharmacol. Exp. Therap., 1952, 106, 319-330; the entire disclosure of which is incorporated herein by reference.
Each animal was dosed with one of:
(1) diazepam, 20 mg/kg dissolved in normal saline as a reference standard;
(2) 1-(3,4-dimethoxyphenyl)-4-methyl-5-ethyl-7-methoxy-8-hydroxy-5H-2,3-benzodiazepine at a dose of 15, 30, 45 or 60 mg/kg; dissolved in 15% DMSO, 35% PEG and 50% deionized water (vehicle); or
(3) vehicle comprising 15% DMSO, 35% PEG and 50% deionized water.
The concentrations of each of the dosed substances were normalized such that the volume of each dose was 10 mL/kg.
Approximately thirty minutes following administration of the above dose, full tonic-clonic seizures were induced in the animals by applying an AC current (50 Hz, 50 mA, 0.2 seconds) using an ECT unit 7800 (Ugo Basile, Comerio, Italy) through corneal electrodes. The appearance and duration of the induced seizures, as characterized by a tonic extension of hindlimbs past 90° were recorded. The seizure data are reproduced in Table 4 showing the seizure data as a mean with a standard error of the mean.

LTB4 receptor = biological target: T1, LTB4 receptor (Cavia porcellus, UniProt H0VYV8); assay: Inhibition of [3H]LTB4 binding, guinea pig spleen membrane assay
T1 construct: 1.0 mg/mL of the Guinea pig spleen membrane preparation; from tissue; host or cells: guinea pig spleen membranes
Procedure: The ability of 1-(3,4-dimethoxyphenyl)-4-methyl-5-ethyl-7-methoxy-8-hydroxy-5H-2,3-benzodiazepine to inhibit [^3H]LTB4 binding to the LTB4 receptor was determined as follows using the guinea pig spleen membrane assay of Cheng et al., J. Pharmacol. Exp. Ther., 236(1), 126-132, 1986, the entire disclosure of which is incorporated herein by reference.
Reactions were carried out in a phosphate buffer (pH 7.4) containing NaCl, MgCl2, EDTA, and bacitracin. The reaction volume of 150 μL containing 1.0 mg/mL of the Guinea pig spleen membrane preparation and 1 nM [^3H]LTB4, with or without a candidate inhibitor, was incubated at 0-4° C. for 2 hours. Candidate inhibitors included the compounds listed in Table 1 and unlabeled LTB4 as a control. The reaction was terminated by rapid vacuum filtration onto glass fiber filters. The filter was washed with cold buffer, dried and placed in a scintillation vial. Radioactivity trapped onto the filters was determined and compared to control values in order to ascertain any interactions of the test compound with the LTB4 binding site.

TXA2 receptor = biological target: T2, TXA2 receptor (Homo sapiens, UniProt P21731); assay: TXA2 binding assay, [3H]SQ 29,548, human platelet-based; conditions: for inhibition at 10 µM: inhibition of [3H]SQ 29,548 binding, human platelets
T2 construct: determined via the human platelet-based assay of Hedberg et al; from tissue; host or cells: human platelets
T2 sequence (P21731 1-343): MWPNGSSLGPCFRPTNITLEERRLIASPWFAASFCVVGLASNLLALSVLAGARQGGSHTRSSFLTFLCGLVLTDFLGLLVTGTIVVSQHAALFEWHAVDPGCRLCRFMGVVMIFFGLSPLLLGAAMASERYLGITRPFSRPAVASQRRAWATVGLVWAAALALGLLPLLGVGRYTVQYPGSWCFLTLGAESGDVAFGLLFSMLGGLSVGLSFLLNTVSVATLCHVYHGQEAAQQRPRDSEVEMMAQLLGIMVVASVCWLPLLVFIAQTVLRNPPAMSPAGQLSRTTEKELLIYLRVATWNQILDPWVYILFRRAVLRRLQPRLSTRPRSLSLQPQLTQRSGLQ
Procedure: The ability of 1-(3,4-dimethoxyphenyl)-4-methyl-5-ethyl-7-methoxy-8-hydroxy-5H-2,3-benzodiazepine to inhibit the binding of [^3H]SQ 29,548 (30-60 Ci/mmol) was determined via the human platelet-based assay of Hedberg et al., “Characterization of [^3H]SQ 29,548 as a High Affinity Radioligand Binding to Thromboxane A2—Receptors in Human Platelets.”, J. Pharmacol. Exp. Ther. 245: 786-792 (1988), with modifications. TXA2 is a very unstable molecule, thus a surrogate ligand of known affinity for the TXA2 receptor is required as a standard for determination of binding affinity of new potential TXA2 ligands. [^3H]SQ 29,548 is a ligand with known binding affinity for the TXA2 receptor. [^3H]SQ 29,548 has been employed as a TXA2 ligand in several published studies, is accepted as a TXA2 binding standard, and is thus useful as a standard in assessing the binding affinity of new compounds to the TXA2 receptor. See also, Armstrong, R. A., Jones, R. L., et al. “Ligand Binding to Thromboxane Receptors on Human Platelets: Correlation with Biological Activity.” Brit. Jrnl. Pharmac. 79:953-964 (1983), the entire disclosures of which are incorporated herein by reference.
as §1, with “25” for “50”, “7.4) containing 138 mM NaCl, 5 mM KCl, 5 mM MgCl2, 5.5 mM dextrose, and 2 mM EDTA” for “7.7)”, “minutes. […]” for “minutes.”, “thromboxane A2” for “adenosine”

mice [1] = conditions: cited from earlier work
rats = conditions: cited from earlier work
mice [2] = conditions: cited from earlier work; remark: listed apart in the source
central BZ receptors = conditions: cited from earlier work
peripheral BZ receptors = peripheral BZ receptors (Homo sapiens, UniProt P30536); conditions: cited from earlier work
Sequence of peripheral BZ receptors (P30536 whole entry): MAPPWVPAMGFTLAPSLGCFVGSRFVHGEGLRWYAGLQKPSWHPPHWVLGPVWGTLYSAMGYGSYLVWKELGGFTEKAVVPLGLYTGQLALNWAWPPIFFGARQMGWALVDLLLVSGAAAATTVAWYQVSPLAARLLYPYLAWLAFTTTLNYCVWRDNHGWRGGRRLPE

T1 sequence (H0VYV8 1-348): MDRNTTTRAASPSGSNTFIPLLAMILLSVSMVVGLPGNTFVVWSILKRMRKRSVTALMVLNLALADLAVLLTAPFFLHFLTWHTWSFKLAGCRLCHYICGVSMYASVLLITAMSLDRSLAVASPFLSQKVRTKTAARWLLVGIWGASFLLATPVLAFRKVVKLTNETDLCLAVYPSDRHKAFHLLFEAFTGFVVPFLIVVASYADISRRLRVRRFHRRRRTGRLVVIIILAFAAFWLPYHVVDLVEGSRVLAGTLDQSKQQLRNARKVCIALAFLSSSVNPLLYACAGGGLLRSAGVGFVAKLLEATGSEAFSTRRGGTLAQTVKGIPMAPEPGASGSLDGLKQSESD

## CCC1C(C)=NN=C(c2ccc(OC)c(OC)c2)c2cc(O)c(OC)cc21 (racemic) [Compound 2, 1-(3,4-dimethoxyphenyl)-4-methyl-5-ethyl-7-methoxy-8-hydroxy-5H-2,3-benzodiazepine]
Adenosine receptor
  Adenosine non-selective @ 10 μM (inhibition of [3H]-NECA binding): 61.50%
Male Swiss mice; 15 mg/kg
  Duration of tonic seizure Mean ± SEM: 9.0 ± 2.5 s
Male Swiss mice; 30 mg/kg
  Duration of tonic seizure Mean ± SEM: 5.5 ± 1.1 s
Male Swiss mice; 45 mg/kg
  Duration of tonic seizure Mean ± SEM: 6.5 ± 1.7 s
Male Swiss mice; 60 mg dose
  anticonvulsant activity: comparable anticonvulsant activity, but fell short of statistical significance
Male Swiss mice; 60 mg/kg
  Duration of tonic seizure Mean ± SEM: 5.7 ± 1.8 s
Male Swiss mice; 30 and 45 mg/kg doses
  anticonvulsant activity: statistically significant anticonvulsant activity
LTB4 receptor
  inhibition at 10 µM: 36%
LTB4 receptor; 10 µM
  LTB4 % inhibition @ 10 μM: 35.96%
TXA2 receptor
  inhibition at 10 µM: 48.3%

## CCC1C(C)=NN=C(c2ccc(OC)c(OC)c2)c2cc(OC)c(O)cc21 (stereo not drawn) [Compound 1, 1-(3,4-dimethoxyphenyl)-4-methyl-5-ethyl-7-hydroxy-8-methoxy-5H-2,3-benzodiazepine]
Adenosine receptor
  Adenosine non-selective @ 10 μM (inhibition of [3H]-NECA binding): 6.73%
Mice [1]
  inhibition of aggression: 0%
LTB4 receptor
  inhibition at 10 µM: 20.4%
rats
  inhibition of muricide: 20%
TXA2 receptor
  inhibition at 10 µM: 42.7%

## CCC1C(C)=NN=C(c2ccc(O)c(OC)c2)c2cc(OC)c(OC)cc21 (stereo not drawn) [Compound 3, 1-(3-methoxy-4-hydroxyphenyl)-4-methyl-5-ethyl-7,8-dimethoxy-5H-2,3-benzodiazepine]
Mice [2]
  narcosis-potentiating activity: demonstrate narcosis-potentiating activity
Adenosine receptor
  Adenosine non-selective @ 10 μM (inhibition of [3H]-NECA binding): inactive
Mice [1]
  inhibition of aggression: 0%
LTB4 receptor
  inhibition at 10 µM: 49.9%
rats
  inhibition of muricide: 0%
TXA2 receptor
  inhibition at 10 µM: 1.98%

## CCC1C(C)=NN=C(c2ccc(OC)c(O)c2)c2cc(OC)c(OC)cc21 (stereo not drawn) [Compound 4, 1-(3-hydroxy-4-methoxyphenyl)-4-methyl-5-ethyl-7,8-dimethoxy-5H-2,3-benzodiazepine]
Adenosine receptor
  Adenosine non-selective @ 10 μM (inhibition of [3H]-NECA binding): 4.26%
LTB4 receptor
  inhibition at 10 µM: 63.9%
TXA2 receptor
  inhibition at 10 µM: 25.9%

## CCC1C(C)=NN=C(c2ccc(O)c(OC)c2)c2cc(OC)c(O)cc21 (stereo not drawn) [Compound 5, 1-(3-methoxy-4-hydroxyphenyl)-4-methyl-5-ethyl-7-hydroxy-8-methoxy-5H-2,3-benzodiazepine]
Adenosine receptor
  Adenosine non-selective @ 10 μM (inhibition of [3H]-NECA binding): 22.40%
Mice [1]
  inhibition of aggression: 28.6%
LTB4 receptor
  LTB4 % inhibition @ 10 μM: inactive
rats
  inhibition of muricide: 20%
TXA2 receptor
  inhibition at 10 µM: 44%

## CCC1C(C)=NN=C(c2ccc(OC)c(O)c2)c2cc(OC)c(O)cc21 (stereo not drawn) [Compound 6, 1-(3-hydroxy-4-methoxyphenyl)-4-methyl-5-ethyl-7-hydroxy-8-methoxy-5H-2,3-benzodiazepine]
Adenosine receptor
  Adenosine non-selective @ 10 μM (inhibition of [3H]-NECA binding): 27.52%
LTB4 receptor
  LTB4 % inhibition @ 10 μM: inactive
TXA2 receptor
  inhibition at 10 µM: 45.7%

## CN1C(=O)CN=C(c2ccccc2)c2cc(Cl)ccc21 [Diazepam, diazepam]
Male Swiss mice; 20 mg/kg
  Duration of tonic seizure Mean ± SEM: 1.8 ± 0.7 s

## CCC1C(C)=NN=C(c2ccc(OC)c(OC)c2)c2cc(OC)c(OC)cc21 (stereo not drawn) [tofisopam]
Central BZ receptors
  interaction with central BZ receptors: does not interact
Peripheral BZ receptors
  binding to peripheral BZ receptors: binds only weakly

## Pinane-thromboxane
TXA2 receptor; competitor in the [3H]SQ 29,548 binding assay
  Ki: 149 nM

— patent publication US7745431B2, “Pharmaceutical composition of 1-(3,4-dimethoxyphenyl)-4-methyl-5-ethyl-7-methoxy-8-hydroxy-5H-2,3-benzodiazepine and uses thereof” (priority 2002, dated 2010)
